From US9657351B2, “MRNA-based gene expression for personalizing patient cancer therapy with an MDM2 antagonist” (Hoffmann-La Roche Inc., priority 2013, dated 2017)

Legend:
Test in all cases: COMPOUND A In Vitro Assay
Type in all cases: cell-based
[1] = tested on: SCaBER; conditions: Homo sapiens, Urinary, bladder, TP53 Mutant
Source text: (§1) To generate an MDM2 antagonist therapy predictive signature, the response of MDM2 antagonist therapy in vitro with gene expression profiling (FIG. 1) is combined. A bank of 287 human cancer cell lines, collectively termed the Cell Lines for Oncology/Chugai ACcumulative Tumour EncycLopedia (CELLO/CACTEL), representing a broad array of diverse human cancer tumor types are subject to evaluation using several high-throughput genomic technology platforms. The mutational status of nucleic acids from each cell line is determined by exome sequencing. Messenger RNA (mRNA) expression levels at baseline, prior to MDM2 antagonist therapy, are obtained via RNA sequencing. MDM2 antagonist therapy COMPOUND A, sometimes referred to herein as RG7112, responses are obtained by assays known to those skilled in the art such as RNA sequencing and microarray measurement using Gene Chip Human Genome U133 Plus 2.0 Array. The MDM2 therapy responses are obtained by high throughout screening assays. Depending on their responses to COMPOUND A these cell lines are classified as either sensitive, defined as IC50<=1, or resistant, defined as IC50>=10.
(§2) 281 cells are treated with MDM2 antagonists and the IC50 (therapy response) is generated. The cell lines span a broad range of tumor cell types of derivation.

[2] = tested on: NCI-H596; conditions: Homo sapiens, Lung, TP53 Mutant
Source text: as §1, §2

[3] = tested on: AN3 CA; conditions: Homo sapiens, Uterus, endometrium, TP53 Mutant
Source text: as §1, §2

[4] = tested on: HCC366; conditions: Homo sapiens, Lung, TP53 Mutant
Source text: as §1, §2

[5] = tested on: PC-13; conditions: Homo sapiens, Lung, TP53 Mutant
Source text: as §1, §2

[6] = tested on: COLO 320DM; conditions: Homo sapiens, Intestine, large, colon, TP53 Mutant
Source text: as §1, §2

[7] = tested on: U-118 MG; conditions: Homo sapiens, Brain, TP53 Mutant
Source text: as §1, §2

[8] = tested on: RL95-2; conditions: Homo sapiens, Uterus, endometrium, TP53 Mutant
Source text: as §1, §2

[9] = tested on: SK-HEP-1; conditions: Homo sapiens
Source text: as §1, §2

[10] = tested on: AsPC-1; conditions: Homo sapiens, ASPC1, Pancreas, TP53 Mutant
Source text: as §1, §2

[11] = tested on: Calu-6; conditions: Homo sapiens, Lung, TP53 Mutant
Source text: as §1, §2

[12] = tested on: HL-60; conditions: Homo sapiens, Blood, TP53 Mutant
Source text: as §1, §2

[13] = tested on: KATO-III; conditions: Homo sapiens, Stomach, TP53 Mutant
Source text: as §1, §2

[14] = tested on: QG-56; conditions: Homo sapiens, Lung, TP53 Mutant
Source text: as §1, §2

[15] = tested on: NCI-H1395; conditions: Homo sapiens, Lung, TP53 Wild type
Source text: as §1, §2

[16] = tested on: NKM-1; conditions: Homo sapiens
Source text: as §1, §2

[17] = tested on: 10C9; conditions: Homo sapiens
Source text: as §1, §2

[18] = tested on: OPM-2; conditions: Homo sapiens, Lymphocyte B, TP53 Mutant
Source text: as §1, §2

[19] = tested on: KMS-34; conditions: Homo sapiens, Lymphocyte, TP53 Mutant
Source text: as §1, §2

[20] = tested on: NCI-H28; conditions: Homo sapiens
Source text: as §1, §2

[21] = tested on: SJCRH30; conditions: Homo sapiens, Muscle, TP53 Mutant
Source text: as §1, §2

[22] = tested on: MDA-MB-231; conditions: Homo sapiens, Breast, mammary gland, TP53 Mutant
Source text: as §1, §2

[23] = tested on: THP-1; conditions: Homo sapiens, Blood, TP53 Mutant
Source text: as §1, §2

[24] = tested on: NCI-H441; conditions: Homo sapiens, Lung, TP53 Mutant
Source text: as §1, §2

[25] = tested on: Caki-1; conditions: Homo sapiens
Source text: as §1, §2

[26] = tested on: NCI-H522; conditions: Homo sapiens, Lung, TP53 Mutant
Source text: as §1, §2

[27] = tested on: Huh-7; conditions: Homo sapiens, Liver, TP53 Mutant
Source text: as §1, §2

[28] = tested on: NCI-H460; conditions: Homo sapiens
Source text: as §1, §2

[29] = tested on: U-2197; conditions: Homo sapiens, Skin, hypodermis, subcutaneous, TP53 Mutant
Source text: as §1, §2

[30] = tested on: LS1034; conditions: Homo sapiens, LS-1034, Intestine, large, caecum, TP53 Mutant
Source text: as §1, §2

[31] = tested on: NCI-H2228; conditions: Homo sapiens, Lung, TP53 Mutant
Source text: as §1, §2

[32] = tested on: KMM-1; conditions: Homo sapiens, Lymphocyte, TP53 Mutant
Source text: as §1, §2

[33] = tested on: SBC-5; conditions: Homo sapiens, Lung, TP53 Mutant
Source text: as §1, §2

[34] = tested on: WERI-Rb-1; conditions: Homo sapiens
Source text: as §1, §2

[35] = tested on: ABC-1; conditions: Homo sapiens, Lung, TP53 Mutant
Source text: as §1, §2

## CCOc1cc(C(C)(C)C)ccc1C1=N[C@@](C)(c2ccc(Cl)cc2)[C@@](C)(c2ccc(Cl)cc2)N1C(=O)N1CCN(CCCS(C)(=O)=O)CC1 [COMPOUND A]
[1]
  IC50: 8.5 µM
[2]
  IC50: 18 µM
[3]
  IC50: 18 µM
[4]
  IC50: 8.7 µM
[5]
  IC50: 14 µM
[6]
  IC50: 12 µM
[7]
  IC50: 19 µM
[8]
  IC50: 9.3 µM
[9]; SK-HEP1, SK-HEP-1, Liver, TP53 Wild type
  IC50: 0.22 µM
[9]; SK-HEP1, SK-HEP-1 cells
  IC50: 0.2 µM
[10]
  IC50: 19 µM
[11]
  IC50: 17 µM
[12]
  IC50: 7 µM
[13]
  IC50: 9.7 µM
[14]
  IC50: 10 µM
[15]
  IC50: 1.3 µM
[16]; NKM-1, Lymphocyte, TP53 Wild type
  IC50: 0.32 µM
[16]; NKM-1 cells
  IC50: 0.3 µM
[17]; 10C9, Lymphocyte B, TP53 Mutant
  IC50: 19 µM
[17]; 10C9 cells
  IC50: 19 µM
[18]
  IC50: 13 µM
[19]
  IC50: 9.8 µM
[20]; NCI-H28, NCI-H28, Mesothelioma, TP53 Wild type
  IC50: 0.46 µM
[20]; NCI-H28, NCI-H28 cells
  IC50: 0.5 µM
[21]
  IC50: 16 µM
[22]
  IC50: 17 µM
[23]
  IC50: 9.7 µM
[24]
  IC50: 10 µM
[25]; CAKI-1, Caki-1, Kidney, TP53 Wild type
  IC50: 0.37 µM
[25]; CAKI-1, Caki-1 cells
  IC50: 0.4 µM
[26]
  IC50: 22 µM
[27]
  IC50: 10 µM
[28]; NCI-H460, NCI-H460, Lung, TP53 Wild type
  IC50: 0.88 µM
[28]; NCI-H460, NCI-H460 cells
  IC50: 0.9 µM
[29]
  IC50: 22 µM
[30]
  IC50: 5.7 µM
[31]
  IC50: 9.8 µM
[32]
  IC50: 19 µM
[33]
  IC50: 18 µM
[34]; WERI-Rb-1, Eye, retina, TP53 Wild type
  IC50: 0.67 µM
[34]; WERI-Rb-1 cells
  IC50: 0.7 µM
[35]
  IC50: 9.9 µM
